ChEMBL document CHEMBL2331421, “Amino acid derived quinazolines as Rock/PKA inhibitors” (Bioorg Med Chem Lett, 2013)

Experiments:
[1] = target: Mitogen-activated protein kinase 9 (Homo sapiens, UniProt P45984); assay: Inhibition of JNK2 (unknown origin)
CYP1A2 = target: T1, CYP1A2 (Homo sapiens, UniProt P05177); assay: Inhibition of CYP1A2 (unknown origin) at 10 uM relative to control; assay type: ADME
T1 sequence (P05177 whole entry): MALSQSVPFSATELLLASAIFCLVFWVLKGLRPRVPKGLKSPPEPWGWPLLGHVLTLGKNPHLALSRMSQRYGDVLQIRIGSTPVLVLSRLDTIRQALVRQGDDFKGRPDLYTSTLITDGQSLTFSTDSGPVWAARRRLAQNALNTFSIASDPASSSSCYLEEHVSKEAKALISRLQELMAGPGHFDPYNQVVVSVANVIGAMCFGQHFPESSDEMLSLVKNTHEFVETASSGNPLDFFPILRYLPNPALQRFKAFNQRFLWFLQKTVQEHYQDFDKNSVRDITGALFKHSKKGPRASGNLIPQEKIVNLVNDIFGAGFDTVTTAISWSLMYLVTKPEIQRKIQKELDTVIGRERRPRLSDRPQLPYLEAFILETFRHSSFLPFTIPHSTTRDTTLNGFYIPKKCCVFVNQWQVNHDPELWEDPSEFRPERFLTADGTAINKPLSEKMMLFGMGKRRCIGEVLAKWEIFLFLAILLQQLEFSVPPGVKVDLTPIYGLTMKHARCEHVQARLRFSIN

CYP3A4 = CYP3A4 (Homo sapiens, UniProt P08684); assay: Inhibition of CYP3A4 (unknown origin) at 10 uM relative to control; assay type: ADME
[2] = target: Mitogen-activated protein kinase 8 (Homo sapiens, UniProt P45983); assay: Inhibition of JNK1 (unknown origin)
[3] = target: Rho-associated protein kinase 2 (Homo sapiens, UniProt O75116); assay: Inhibition of human recombinant 6-His-tagged ROCK2 expressed in baculovirus-infected Sf9 cells using LCB-AKRRRLSSLRA-NH2 as substrate after 25 mins by TR-FRET assay
[4] = target: Mitogen-activated protein kinase 14 (Homo sapiens, UniProt Q16539); assay: Inhibition of p38alpha (unknown origin)
[5] = target: Serine/threonine-protein kinase MRCK alpha (Homo sapiens, UniProt Q5VT25); assay: Inhibition of MRCKalpha (unknown origin)
[6] = Inhibition of ROCK in rat A7r5 cells assessed as inhibition of myosin light chain bisphosphorylation by Western blot analysis; assay type: cell-based
[7] = target: Mitogen-activated protein kinase 10 (Homo sapiens, UniProt P53779); assay: Inhibition of JNK3 (unknown origin)
[8] = target: Rho-associated protein kinase 1 (Homo sapiens, UniProt Q13464); assay: Inhibition of ROCK1 (unknown origin)
[9] = Inhibition of PKA (unknown origin); set-up: species or system Homo sapiens
[10] = Half life in human liver microsomes; assay type: ADME, Microsome
CYP2D6 = CYP2D6 (Homo sapiens, UniProt P10635); assay: Inhibition of CYP2D6 (unknown origin) at 10 uM relative to control; assay type: ADME
CYP2C9 = CYP2C9 (Homo sapiens, UniProt P11712); assay: Inhibition of CYP2C9 (unknown origin) at 10 uM relative to control; assay type: ADME
CYP2C9, sequence (P11712 whole entry): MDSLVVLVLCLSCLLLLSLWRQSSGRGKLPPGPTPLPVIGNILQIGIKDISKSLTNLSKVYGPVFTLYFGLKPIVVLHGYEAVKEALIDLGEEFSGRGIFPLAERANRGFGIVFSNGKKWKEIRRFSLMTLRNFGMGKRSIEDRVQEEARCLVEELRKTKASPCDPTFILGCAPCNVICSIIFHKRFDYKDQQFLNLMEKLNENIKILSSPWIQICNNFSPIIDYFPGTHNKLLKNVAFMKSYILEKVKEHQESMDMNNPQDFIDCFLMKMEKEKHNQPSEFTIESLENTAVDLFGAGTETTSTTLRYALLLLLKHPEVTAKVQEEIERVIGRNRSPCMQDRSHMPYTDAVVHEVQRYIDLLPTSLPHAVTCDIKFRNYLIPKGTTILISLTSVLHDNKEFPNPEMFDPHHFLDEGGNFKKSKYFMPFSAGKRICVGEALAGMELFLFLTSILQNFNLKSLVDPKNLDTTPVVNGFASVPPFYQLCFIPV

Mitogen-activated protein kinase 8, sequence (P45983 whole entry): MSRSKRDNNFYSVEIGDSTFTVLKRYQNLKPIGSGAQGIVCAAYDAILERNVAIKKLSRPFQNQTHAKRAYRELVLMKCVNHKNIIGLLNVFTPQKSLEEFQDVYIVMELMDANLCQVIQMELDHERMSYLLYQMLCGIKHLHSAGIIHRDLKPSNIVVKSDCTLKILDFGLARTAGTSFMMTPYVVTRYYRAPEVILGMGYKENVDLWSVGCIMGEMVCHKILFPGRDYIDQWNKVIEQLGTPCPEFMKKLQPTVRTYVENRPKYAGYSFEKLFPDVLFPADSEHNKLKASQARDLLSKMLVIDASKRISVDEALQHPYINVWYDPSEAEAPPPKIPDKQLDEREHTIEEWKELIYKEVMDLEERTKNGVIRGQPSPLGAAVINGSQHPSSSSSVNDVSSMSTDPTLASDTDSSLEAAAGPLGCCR
CYP3A4, sequence (P08684 whole entry): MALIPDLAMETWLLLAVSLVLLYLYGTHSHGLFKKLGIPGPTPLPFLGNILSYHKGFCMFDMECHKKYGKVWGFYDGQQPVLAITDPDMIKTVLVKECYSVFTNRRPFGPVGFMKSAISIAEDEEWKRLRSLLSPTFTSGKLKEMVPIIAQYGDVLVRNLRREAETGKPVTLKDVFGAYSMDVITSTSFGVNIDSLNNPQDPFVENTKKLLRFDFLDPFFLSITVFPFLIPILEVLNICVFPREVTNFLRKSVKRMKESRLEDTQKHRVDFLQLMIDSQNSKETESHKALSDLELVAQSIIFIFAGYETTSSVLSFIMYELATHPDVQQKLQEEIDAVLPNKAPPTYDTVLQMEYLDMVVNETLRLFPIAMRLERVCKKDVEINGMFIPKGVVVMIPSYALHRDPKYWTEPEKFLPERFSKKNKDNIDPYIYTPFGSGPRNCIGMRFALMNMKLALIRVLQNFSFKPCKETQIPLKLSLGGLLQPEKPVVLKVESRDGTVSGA
Rho-associated protein kinase 2, sequence (O75116 whole entry): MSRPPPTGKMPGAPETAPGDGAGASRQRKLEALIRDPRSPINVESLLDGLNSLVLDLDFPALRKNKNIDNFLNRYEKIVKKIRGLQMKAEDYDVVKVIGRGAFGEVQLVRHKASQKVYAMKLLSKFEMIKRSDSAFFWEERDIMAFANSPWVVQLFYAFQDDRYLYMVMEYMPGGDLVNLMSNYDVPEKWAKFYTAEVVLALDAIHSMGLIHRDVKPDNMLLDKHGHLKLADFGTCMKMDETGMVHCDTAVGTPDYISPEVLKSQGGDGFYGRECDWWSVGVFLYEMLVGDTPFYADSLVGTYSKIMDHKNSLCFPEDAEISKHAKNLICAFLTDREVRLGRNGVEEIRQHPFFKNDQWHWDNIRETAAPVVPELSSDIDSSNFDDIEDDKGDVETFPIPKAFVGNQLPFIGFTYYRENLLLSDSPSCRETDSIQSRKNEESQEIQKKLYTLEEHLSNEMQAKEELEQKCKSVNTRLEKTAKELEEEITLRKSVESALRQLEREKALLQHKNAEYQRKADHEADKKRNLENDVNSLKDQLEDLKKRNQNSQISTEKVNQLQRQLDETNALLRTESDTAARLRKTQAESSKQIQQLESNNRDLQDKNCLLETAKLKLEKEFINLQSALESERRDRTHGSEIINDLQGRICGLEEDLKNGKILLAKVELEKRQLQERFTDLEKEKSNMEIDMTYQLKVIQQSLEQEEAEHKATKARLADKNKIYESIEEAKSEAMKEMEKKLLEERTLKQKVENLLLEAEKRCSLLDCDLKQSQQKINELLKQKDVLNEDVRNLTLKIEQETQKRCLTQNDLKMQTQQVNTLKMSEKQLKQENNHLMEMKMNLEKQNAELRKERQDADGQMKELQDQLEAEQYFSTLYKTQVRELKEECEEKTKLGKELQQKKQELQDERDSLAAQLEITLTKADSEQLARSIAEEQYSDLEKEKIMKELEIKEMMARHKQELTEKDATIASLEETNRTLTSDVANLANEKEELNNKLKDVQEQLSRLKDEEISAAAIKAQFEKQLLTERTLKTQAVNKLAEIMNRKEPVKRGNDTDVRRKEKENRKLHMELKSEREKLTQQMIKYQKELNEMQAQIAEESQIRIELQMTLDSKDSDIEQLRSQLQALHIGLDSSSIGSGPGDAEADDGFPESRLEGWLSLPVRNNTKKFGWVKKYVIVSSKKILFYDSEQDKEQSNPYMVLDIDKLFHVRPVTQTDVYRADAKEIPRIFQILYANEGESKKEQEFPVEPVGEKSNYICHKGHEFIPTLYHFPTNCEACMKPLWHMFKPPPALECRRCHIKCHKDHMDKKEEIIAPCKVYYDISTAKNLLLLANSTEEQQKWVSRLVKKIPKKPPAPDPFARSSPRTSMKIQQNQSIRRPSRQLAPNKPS
Mitogen-activated protein kinase 14, sequence (Q16539 whole entry): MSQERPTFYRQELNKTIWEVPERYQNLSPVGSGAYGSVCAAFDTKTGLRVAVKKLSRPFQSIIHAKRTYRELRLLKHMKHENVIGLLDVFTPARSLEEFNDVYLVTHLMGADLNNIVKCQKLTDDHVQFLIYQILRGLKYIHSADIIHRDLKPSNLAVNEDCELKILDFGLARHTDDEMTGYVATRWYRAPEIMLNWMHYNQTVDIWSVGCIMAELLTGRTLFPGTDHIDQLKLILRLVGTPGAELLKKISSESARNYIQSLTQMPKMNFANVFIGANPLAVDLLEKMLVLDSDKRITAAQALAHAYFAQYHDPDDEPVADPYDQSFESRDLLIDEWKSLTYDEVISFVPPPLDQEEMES
Serine/threonine-protein kinase MRCK alpha, sequence (Q5VT25 whole entry): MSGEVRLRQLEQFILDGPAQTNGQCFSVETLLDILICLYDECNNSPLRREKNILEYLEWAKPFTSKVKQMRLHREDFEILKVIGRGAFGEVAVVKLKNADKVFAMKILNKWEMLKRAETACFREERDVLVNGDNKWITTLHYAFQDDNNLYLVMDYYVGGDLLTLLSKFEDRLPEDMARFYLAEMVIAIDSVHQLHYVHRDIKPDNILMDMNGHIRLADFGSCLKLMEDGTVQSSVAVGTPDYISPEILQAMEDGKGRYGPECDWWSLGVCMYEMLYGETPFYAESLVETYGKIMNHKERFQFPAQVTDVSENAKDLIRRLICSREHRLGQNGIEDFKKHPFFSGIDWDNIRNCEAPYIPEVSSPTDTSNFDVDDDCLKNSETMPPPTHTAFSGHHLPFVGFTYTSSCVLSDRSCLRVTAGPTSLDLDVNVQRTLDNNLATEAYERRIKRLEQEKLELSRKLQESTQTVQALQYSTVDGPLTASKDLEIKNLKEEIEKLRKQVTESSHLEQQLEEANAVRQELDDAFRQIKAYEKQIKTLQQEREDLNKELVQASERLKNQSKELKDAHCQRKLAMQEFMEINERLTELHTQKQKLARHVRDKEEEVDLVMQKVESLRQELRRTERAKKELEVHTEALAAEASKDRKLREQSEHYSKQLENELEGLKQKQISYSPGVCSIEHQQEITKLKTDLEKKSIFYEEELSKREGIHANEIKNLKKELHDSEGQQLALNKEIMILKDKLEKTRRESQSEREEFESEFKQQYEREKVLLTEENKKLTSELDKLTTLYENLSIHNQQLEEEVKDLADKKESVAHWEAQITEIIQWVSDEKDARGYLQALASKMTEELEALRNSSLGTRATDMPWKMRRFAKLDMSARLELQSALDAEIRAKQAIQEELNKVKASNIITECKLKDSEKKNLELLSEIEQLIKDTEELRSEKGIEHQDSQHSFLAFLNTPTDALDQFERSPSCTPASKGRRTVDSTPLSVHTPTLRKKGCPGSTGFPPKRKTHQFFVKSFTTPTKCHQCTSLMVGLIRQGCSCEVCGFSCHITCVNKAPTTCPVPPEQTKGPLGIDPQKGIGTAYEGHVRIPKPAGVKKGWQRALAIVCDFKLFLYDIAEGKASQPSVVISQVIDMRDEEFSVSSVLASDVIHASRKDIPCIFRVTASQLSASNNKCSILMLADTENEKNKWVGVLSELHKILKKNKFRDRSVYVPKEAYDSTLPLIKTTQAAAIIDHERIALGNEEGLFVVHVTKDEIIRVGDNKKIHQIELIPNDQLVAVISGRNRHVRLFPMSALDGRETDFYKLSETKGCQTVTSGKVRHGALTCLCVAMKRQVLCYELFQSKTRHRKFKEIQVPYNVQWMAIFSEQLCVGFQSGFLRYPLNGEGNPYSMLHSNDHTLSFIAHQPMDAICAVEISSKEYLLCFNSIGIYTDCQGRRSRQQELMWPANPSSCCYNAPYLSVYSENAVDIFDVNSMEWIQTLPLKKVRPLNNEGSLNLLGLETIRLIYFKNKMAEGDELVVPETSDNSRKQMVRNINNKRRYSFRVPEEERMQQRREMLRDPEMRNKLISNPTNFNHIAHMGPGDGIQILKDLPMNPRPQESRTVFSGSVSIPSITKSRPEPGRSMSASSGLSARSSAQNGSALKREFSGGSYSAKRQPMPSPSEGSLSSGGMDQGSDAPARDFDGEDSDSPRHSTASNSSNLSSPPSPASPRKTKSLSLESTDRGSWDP

**Q.** With `N[C@@H](Cc1ccc(F)cc1)c1nc2ccc(-c3cn[nH]c3)cc2c(=O)[nH]1` as the compound, how does the IC50 [1] read?
**A.** Its IC50 is > 1000 nM.

**Q.** And the inhibition at 10 µM (CYP1A2)?
**A.** The inhibition at 10 µM was 12%.

**Q.** What about the inhibition at 10 µM (CYP3A4) of the same compound?
**A.** The inhibition at 10 µM was 31%.

**Q.** And the IC50 [2]?
**A.** Its IC50 is > 1000 nM.

**Q.** And the IC50 [3]?
**A.** Its IC50 is 9 nM.

**Q.** What about the IC50 [4] of the same compound?
**A.** Its IC50 is > 1000 nM.

**Q.** And the IC50 [5]?
**A.** The IC50 was > 1000 nM.

**Q.** And the IC50 [6]?
**A.** The IC50 was 300 nM.

**Q.** What about the IC50 [7] of the same compound?
**A.** The IC50 was > 1000 nM.

**Q.** What about the IC50 [8] of the same compound?
**A.** Its IC50 is 17 nM.

**Q.** What about the IC50 [9] of the same compound?
**A.** The IC50 was 16 nM.

**Q.** What about the half-life [10] of the same compound?
**A.** The half-life was 0.7 h.

**Q.** What about the inhibition at 10 µM (CYP2D6) of the same compound?
**A.** The inhibition at 10 µM was 89%.

**Q.** And the inhibition at 10 µM (CYP2C9)?
**A.** Its inhibition at 10 µM is 38%.

**Q.** Which results are given for `N[C@@H](Cc1ccc(Cl)cc1)c1nc2ccc(-c3cn[nH]c3)cc2c(=O)[nH]1`?
**A.** IC50 [1]: > 1000 nM; inhibition at 10 µM (CYP1A2): 51%; inhibition at 10 µM (CYP3A4): 42%; IC50 [2]: > 1000 nM; IC50 [3]: 6 nM; IC50 [4]: > 1000 nM; IC50 [5]: > 1000 nM; IC50 [6]: 300 nM; IC50 [7]: > 1000 nM; IC50 [9]: 7 nM; half-life [10]: 0.783 h; inhibition at 10 µM (CYP2D6): 78%; inhibition at 10 µM (CYP2C9): 54%

**Q.** Which results are given for `CCN[C@H](Cc1ccc(Cl)cc1)c1nc2ccc(-c3cn[nH]c3)cc2c(=O)[nH]1`?
**A.** IC50 [3]: 14 nM; IC50 [9]: 17 nM

**Q.** Which IC50 [3] does the source give for `N[C@H](Cc1ccc(Cl)cc1)c1nc2ccc(-c3cn[nH]c3)cc2c(=O)[nH]1` here?
**A.** The IC50 was 4 nM.

**Q.** And the IC50 [9]?
**A.** Its IC50 is 5 nM.

**Q.** With `CN(C)c1nc([C@@H](N)Cc2cccc(F)c2)nc2ccc(-c3cn[nH]c3)cc12` as the compound, how does the IC50 [3] read?
**A.** The IC50 was 67 nM.

**Q.** What about the IC50 [9] of the same compound?
**A.** Its IC50 is 259 nM.

**Q.** Which IC50 [3] does the source give for `C[N+]1(C)C[C@@H](c2ccccc2)[C@H](c2nc3ccc(-c4cn[nH]c4)cc3c(=O)[nH]2)C1` here?
**A.** The IC50 was 4 nM.

**Q.** And the IC50 [9]?
**A.** The IC50 was 23 nM.

**Q.** For `CN(CCO)c1nc([C@H](N)Cc2cccc(F)c2)nc2ccc(-c3cn[nH]c3)cc12`, which IC50 [3] is on record?
**A.** The IC50 was 27 nM.

**Q.** And the IC50 [9]?
**A.** The IC50 was 44 nM.

**Q.** Which IC50 [3] does the source give for `Fc1ccc([C@@H]2CNC[C@H]2c2nc(N3CCC3)c3cc(-c4cn[nH]c4)ccc3n2)cc1` here?
**A.** The IC50 was 71 nM.

**Q.** What about the IC50 [9] of the same compound?
**A.** Its IC50 is 443 nM.

**Q.** With `CN(C)CCN(C)c1nc([C@H](N)Cc2cccc(F)c2)nc2ccc(-c3cn[nH]c3)cc12` as the compound, how does the IC50 [3] read?
**A.** Its IC50 is 627 nM.

**Q.** And the IC50 [9]?
**A.** The IC50 was 1160 nM.

**Q.** For `N[C@@H](Cc1ccccc1)c1nc2ccc(-c3ccncc3)cc2c(=O)[nH]1`, which IC50 [3] is on record?
**A.** Its IC50 is 52 nM.

**Q.** What about the IC50 [9] of the same compound?
**A.** The IC50 was 49 nM.

**Q.** For `Nc1nccc(-c2ccc3nc([C@@H]4CNC[C@H]4c4ccccc4)[nH]c(=O)c3c2)n1`, which IC50 [3] is on record?
**A.** The IC50 was 6 nM.

**Q.** What about the IC50 [9] of the same compound?
**A.** The IC50 was 10 nM.

**Q.** Which IC50 [1] does the source give for `NCc1ccc(C(=O)NC(c2ccc(Cl)cc2)c2nc3ccc(-c4cn[nH]c4)cc3c(=O)[nH]2)cc1` (stereo not given) here?
**A.** The IC50 was > 1000 nM.

**Q.** What about the inhibition at 10 µM (CYP1A2) of the same compound?
**A.** Its inhibition at 10 µM is 90%.

**Q.** And the inhibition at 10 µM (CYP3A4)?
**A.** The inhibition at 10 µM was 63%.

**Q.** What about the IC50 [2] of the same compound?
**A.** The IC50 was > 1000 nM.

**Q.** What about the IC50 [3] of the same compound?
**A.** The IC50 was 18 nM.

**Q.** What about the IC50 [4] of the same compound?
**A.** The IC50 was > 1000 nM.

**Q.** And the IC50 [5]?
**A.** The IC50 was > 1000 nM.

**Q.** And the IC50 [7]?
**A.** The IC50 was > 1000 nM.

**Q.** And the IC50 [8]?
**A.** Its IC50 is 22 nM.

**Q.** What about the IC50 [9] of the same compound?
**A.** Its IC50 is 96 nM.

**Q.** And the half-life [10]?
**A.** The half-life was 7 h.

**Q.** What about the inhibition at 10 µM (CYP2D6) of the same compound?
**A.** The inhibition at 10 µM was 96%.

**Q.** What about the inhibition at 10 µM (CYP2C9) of the same compound?
**A.** The inhibition at 10 µM was 94%.

**Q.** With `N[C@H](Cc1ccc(F)c(F)c1)c1nc2ccc(-c3cn[nH]c3)cc2c(=O)[nH]1` as the compound, how does the IC50 [3] read?
**A.** Its IC50 is 7 nM.

**Q.** What about the IC50 [9] of the same compound?
**A.** Its IC50 is 12 nM.

**Q.** For `COc1ccc([C@@H]2CN(Cc3ccccc3)C[C@H]2c2nc3ccc(-c4cn[nH]c4)cc3c(=O)[nH]2)cc1`, which IC50 [3] is on record?
**A.** The IC50 was 88 nM.

**Q.** And the IC50 [9]?
**A.** The IC50 was 117 nM.

**Q.** For `CN(C)c1nc([C@@H]2CNC[C@H]2c2ccccc2)nc2ccc(-c3cn[nH]c3)cc12`, which IC50 [1] is on record?
**A.** Its IC50 is > 1000 nM.

**Q.** And the inhibition at 10 µM (CYP1A2)?
**A.** The inhibition at 10 µM was 49%.

**Q.** What about the inhibition at 10 µM (CYP3A4) of the same compound?
**A.** The inhibition at 10 µM was 77%.

**Q.** What about the IC50 [2] of the same compound?
**A.** The IC50 was > 1000 nM.

**Q.** What about the IC50 [3] of the same compound?
**A.** The IC50 was 2.5 nM.

**Q.** What about the IC50 [4] of the same compound?
**A.** The IC50 was > 1000 nM.

**Q.** And the IC50 [5]?
**A.** The IC50 was > 1000 nM.

**Q.** What about the IC50 [6] of the same compound?
**A.** The IC50 was 800 nM.

**Q.** And the IC50 [7]?
**A.** The IC50 was > 1000 nM.

**Q.** And the IC50 [9]?
**A.** The IC50 was 279 nM.

**Q.** And the half-life [10]?
**A.** Its half-life is 1.43 h.

**Q.** And the inhibition at 10 µM (CYP2D6)?
**A.** The inhibition at 10 µM was 88%.

**Q.** And the inhibition at 10 µM (CYP2C9)?
**A.** Its inhibition at 10 µM is 47%.

**Q.** Which results are given for `N[C@H](Cc1cccc(C(F)(F)F)c1)c1nc2ccc(-c3cn[nH]c3)cc2c(=O)[nH]1`?
**A.** IC50 [3]: 16 nM; IC50 [9]: 28 nM

**Q.** Which results are given for `O=c1[nH]c([C@@H]2CN(Cc3ccccc3)C[C@H]2c2cccc(F)c2)nc2ccc(-c3cn[nH]c3)cc12`?
**A.** IC50 [3]: 225 nM; IC50 [9]: 423 nM

**Q.** For `CN(CCCO)c1nc([C@H](N)Cc2cccc(F)c2)nc2ccc(-c3cn[nH]c3)cc12`, which IC50 [3] is on record?
**A.** Its IC50 is 159 nM.

**Q.** Which IC50 [3] does the source give for `COc1cc(-c2cn[nH]c2)cc2c(=O)[nH]c(C(N)c3ccc(Cl)cc3)nc12` (stereo not given) here?
**A.** The IC50 was 9 nM.

**Q.** What about the IC50 [9] of the same compound?
**A.** Its IC50 is 14 nM.

**Q.** Which results are given for `CCOc1ccc(C[C@H](N)c2nc3ccc(-c4cn[nH]c4)cc3c(=O)[nH]2)cc1`?
**A.** IC50 [3]: 19 nM; IC50 [9]: 60 nM

**Q.** With `COc1ccc(C(N)c2nc3ccc(-c4c[nH]nc4C)cc3c(=O)[nH]2)cc1` (stereo not given) as the compound, how does the IC50 [3] read?
**A.** Its IC50 is 98 nM.
